Here are results for 34 molecules from patent publication US20040266784A1, “Calcium channel inhibitors comprising benzhydril spaced from piperazine” (priority 1998, published 2004).

The test concerns the target T1, rat N-type channels (α1B+α2δ+β1b subunits) (Rattus norvegicus, UniProt Q02294).
T1 construct: expressed in transfected cells
The test can be described thus: Whole cell patch clamp, N-type calcium channel block in HEK 293 cells. It is filed as cell-based. Here is the method: Antagonist activity was measured using whole cell patch recordings on human embryonic kidney cells either stably or transiently expressing rat N-type channels (α1B+[…]+β1b subunits) with 5 mM barium as a charge carrier. Alternatively, cells either stably or transiently expressing rat L-type channels (α1C+α2δ+β1b cDNA subunits) and P/Q-type channels (α1A+α2δ+β1b cDNA subunits)
HEK 293 cells were transfected by a standard calcium-phosphate-DNA coprecipitation method using the rat α1B+β1b+α2δ N-type calcium channel subunits in a vertebrate expression vector (for example, see Current Protocols in Molecular Biology).
After an incubation period of from 24 to 72 hrs the culture medium was removed and replaced with external recording solution (see below). Whole cell patch clamp experiments were performed using an Axopatch 200B amplifier (Axon Instruments, Burlingame, Calif.) linked to an IBM compatible personal computer equipped with pCLAMP software. […] Current data shown were elicited by a train of 100 ms test pulses at 0.066 Hz from −100 mV and/or −80 mV to various potentials (min. −20 mV, max. +30 mV). Drugs were perfused directly into the vicinity of the cells using a microperfusion system.
Normalized dose-response curves were fit (Sigmaplot 4.0, SPSS Inc., Chicago, Ill.) by the Hill equation to determine IC50 values. Steady-state inactivation curves were plotted as the normalized test pulse amplitude following 5 s inactivating prepulses at +10 mV increments.
Alternatively, N-type calcium channels (α1B+α2δ+β1b cDNA subunits), L-type channels (α1C+α2δ+β1b cDNA subunits) and P/Q-type channels (α1A+α2δ+β1b cDNA subunits) were transiently expressed in HEK 293 cells. Briefly, cells were cultured in Dulbecco's modified eagle medium (DMEM) supplemented with 10% fetal bovine serum, 200 U/ml penicillin and 0.2 mg/ml streptomycin at 37° C. with 5% CO2. […] At 12 hours the medium was replaced and the cells transiently transfected using a standard calcium phosphate protocol and the appropriate calcium channel cDNAs. Fresh DMEM was supplied and the cells transferred to 28° C./5% CO2.
Whole cell patch clamp experiments were performed using an Axopatch 200B amplifier (Axon Instruments, Burlingame, Calif.) linked to a personal computer equipped with pCLAMP software. […] Currents were typically elicited from a holding potential of −80 mV to +10 mV using Clampex software (Axon Instruments). […] The compounds were then applied during the low frequency pulse trains for two to three minutes to assess tonic block, and subsequently the pulse frequency was increased to 0.2 Hz to assess frequency dependent block. Data were analyzed using Clampfit (Axon Instruments) and SigmaPlot 4.0 (Jandel Scientific).
Background: Patch clamp records ionic current or voltage across a cell membrane.

Where [1] appears, read: 0.067 Hz, read-out: IC50 for N-type Calcium Channel Block (0.067 Hz).
The mark [2] stands for this setting: 0.2 Hz, read-out: IC50 for N-type Calcium Channel Block (0.2 Hz).

Like-named read-outs stand apart in the source and are kept apart here.

Broadly, the IC50 is the midpoint of a concentration-inhibition curve.

T1 sequence (Q02294 whole entry): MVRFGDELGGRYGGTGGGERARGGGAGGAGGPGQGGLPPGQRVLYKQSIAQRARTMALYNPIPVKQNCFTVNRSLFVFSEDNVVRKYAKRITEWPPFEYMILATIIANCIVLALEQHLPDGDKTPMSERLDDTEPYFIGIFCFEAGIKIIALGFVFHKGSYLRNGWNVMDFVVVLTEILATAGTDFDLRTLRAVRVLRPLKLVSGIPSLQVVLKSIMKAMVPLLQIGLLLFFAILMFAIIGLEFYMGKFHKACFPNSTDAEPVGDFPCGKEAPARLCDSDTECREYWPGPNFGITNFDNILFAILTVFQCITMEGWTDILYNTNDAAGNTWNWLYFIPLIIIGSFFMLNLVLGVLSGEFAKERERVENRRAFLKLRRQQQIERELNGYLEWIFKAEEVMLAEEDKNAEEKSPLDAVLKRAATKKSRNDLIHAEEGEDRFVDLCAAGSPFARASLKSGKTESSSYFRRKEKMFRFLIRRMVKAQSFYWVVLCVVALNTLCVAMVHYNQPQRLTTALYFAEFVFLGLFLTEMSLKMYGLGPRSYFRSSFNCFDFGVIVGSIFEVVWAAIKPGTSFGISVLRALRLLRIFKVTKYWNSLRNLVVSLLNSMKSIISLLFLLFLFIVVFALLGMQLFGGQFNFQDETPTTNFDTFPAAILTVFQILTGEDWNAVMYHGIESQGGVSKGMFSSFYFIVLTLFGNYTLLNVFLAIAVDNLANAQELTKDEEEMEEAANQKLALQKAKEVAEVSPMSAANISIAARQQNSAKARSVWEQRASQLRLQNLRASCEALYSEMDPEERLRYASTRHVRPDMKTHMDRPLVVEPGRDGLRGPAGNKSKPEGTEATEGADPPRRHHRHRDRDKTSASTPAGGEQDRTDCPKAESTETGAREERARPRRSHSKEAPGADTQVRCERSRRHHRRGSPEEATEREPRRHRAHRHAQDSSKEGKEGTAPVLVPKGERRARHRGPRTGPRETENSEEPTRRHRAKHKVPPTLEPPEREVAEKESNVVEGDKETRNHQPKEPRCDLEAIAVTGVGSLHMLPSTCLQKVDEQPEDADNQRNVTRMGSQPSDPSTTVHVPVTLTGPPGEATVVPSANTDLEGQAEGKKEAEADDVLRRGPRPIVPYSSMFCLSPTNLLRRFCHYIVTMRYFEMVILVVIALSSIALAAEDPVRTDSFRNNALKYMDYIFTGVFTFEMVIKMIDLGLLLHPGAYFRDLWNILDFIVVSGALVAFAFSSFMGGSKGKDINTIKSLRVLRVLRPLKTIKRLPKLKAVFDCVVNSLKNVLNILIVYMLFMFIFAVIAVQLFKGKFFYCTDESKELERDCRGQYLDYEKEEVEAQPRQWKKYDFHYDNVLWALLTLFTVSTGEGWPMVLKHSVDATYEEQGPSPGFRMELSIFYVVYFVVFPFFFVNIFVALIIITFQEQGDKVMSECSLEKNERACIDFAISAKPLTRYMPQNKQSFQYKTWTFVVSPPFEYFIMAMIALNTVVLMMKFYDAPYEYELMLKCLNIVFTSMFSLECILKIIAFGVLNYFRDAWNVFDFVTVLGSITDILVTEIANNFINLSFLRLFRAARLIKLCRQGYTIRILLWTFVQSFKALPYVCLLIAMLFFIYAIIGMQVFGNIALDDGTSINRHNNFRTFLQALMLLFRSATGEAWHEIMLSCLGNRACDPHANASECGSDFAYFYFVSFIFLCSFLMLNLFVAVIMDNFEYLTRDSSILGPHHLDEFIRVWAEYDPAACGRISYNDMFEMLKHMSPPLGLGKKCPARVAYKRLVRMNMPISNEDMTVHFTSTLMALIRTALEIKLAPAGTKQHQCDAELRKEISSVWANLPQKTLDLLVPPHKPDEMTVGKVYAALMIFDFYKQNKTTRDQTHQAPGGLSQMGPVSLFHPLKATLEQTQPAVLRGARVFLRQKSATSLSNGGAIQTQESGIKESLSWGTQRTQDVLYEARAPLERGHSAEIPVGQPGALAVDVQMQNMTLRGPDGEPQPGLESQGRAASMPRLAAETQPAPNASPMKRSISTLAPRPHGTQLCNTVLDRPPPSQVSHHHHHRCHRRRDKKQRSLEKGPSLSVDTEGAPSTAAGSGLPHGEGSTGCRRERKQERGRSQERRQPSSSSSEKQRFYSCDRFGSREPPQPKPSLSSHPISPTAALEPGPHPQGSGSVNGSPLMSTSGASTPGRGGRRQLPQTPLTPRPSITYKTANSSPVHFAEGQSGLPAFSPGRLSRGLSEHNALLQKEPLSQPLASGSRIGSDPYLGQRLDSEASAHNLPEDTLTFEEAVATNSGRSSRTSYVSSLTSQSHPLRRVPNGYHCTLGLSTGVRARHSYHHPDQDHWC
T1 sequence (P54290 25-944 partner limits assumed): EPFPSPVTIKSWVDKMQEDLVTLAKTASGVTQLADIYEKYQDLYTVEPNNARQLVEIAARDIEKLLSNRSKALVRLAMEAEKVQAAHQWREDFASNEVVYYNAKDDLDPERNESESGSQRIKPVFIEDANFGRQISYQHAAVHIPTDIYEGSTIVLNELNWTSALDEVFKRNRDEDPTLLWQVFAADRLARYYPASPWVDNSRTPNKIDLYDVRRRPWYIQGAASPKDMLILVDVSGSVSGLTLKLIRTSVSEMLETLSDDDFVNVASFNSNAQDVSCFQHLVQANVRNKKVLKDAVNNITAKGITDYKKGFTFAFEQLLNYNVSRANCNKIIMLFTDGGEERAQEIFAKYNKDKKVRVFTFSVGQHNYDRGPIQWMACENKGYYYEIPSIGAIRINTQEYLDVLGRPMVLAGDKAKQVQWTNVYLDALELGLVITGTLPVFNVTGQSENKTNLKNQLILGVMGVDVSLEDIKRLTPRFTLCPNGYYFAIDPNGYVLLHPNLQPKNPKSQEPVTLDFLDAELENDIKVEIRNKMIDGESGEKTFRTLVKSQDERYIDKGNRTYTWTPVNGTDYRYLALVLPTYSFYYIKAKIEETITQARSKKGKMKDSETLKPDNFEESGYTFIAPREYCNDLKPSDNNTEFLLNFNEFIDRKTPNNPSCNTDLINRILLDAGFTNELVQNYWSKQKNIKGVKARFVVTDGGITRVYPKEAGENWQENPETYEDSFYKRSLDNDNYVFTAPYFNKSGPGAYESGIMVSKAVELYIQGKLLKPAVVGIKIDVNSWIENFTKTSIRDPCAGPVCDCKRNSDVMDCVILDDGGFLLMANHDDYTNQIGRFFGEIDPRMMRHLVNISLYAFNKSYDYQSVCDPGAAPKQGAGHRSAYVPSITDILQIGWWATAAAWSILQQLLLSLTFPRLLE
T1 sequence (P54290 945-1091 partner limits assumed): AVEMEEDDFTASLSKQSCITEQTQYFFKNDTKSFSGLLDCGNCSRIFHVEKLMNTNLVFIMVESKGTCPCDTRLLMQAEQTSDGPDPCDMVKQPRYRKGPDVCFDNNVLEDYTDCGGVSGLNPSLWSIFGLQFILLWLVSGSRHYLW
T1 sequence (P54283 whole entry partner): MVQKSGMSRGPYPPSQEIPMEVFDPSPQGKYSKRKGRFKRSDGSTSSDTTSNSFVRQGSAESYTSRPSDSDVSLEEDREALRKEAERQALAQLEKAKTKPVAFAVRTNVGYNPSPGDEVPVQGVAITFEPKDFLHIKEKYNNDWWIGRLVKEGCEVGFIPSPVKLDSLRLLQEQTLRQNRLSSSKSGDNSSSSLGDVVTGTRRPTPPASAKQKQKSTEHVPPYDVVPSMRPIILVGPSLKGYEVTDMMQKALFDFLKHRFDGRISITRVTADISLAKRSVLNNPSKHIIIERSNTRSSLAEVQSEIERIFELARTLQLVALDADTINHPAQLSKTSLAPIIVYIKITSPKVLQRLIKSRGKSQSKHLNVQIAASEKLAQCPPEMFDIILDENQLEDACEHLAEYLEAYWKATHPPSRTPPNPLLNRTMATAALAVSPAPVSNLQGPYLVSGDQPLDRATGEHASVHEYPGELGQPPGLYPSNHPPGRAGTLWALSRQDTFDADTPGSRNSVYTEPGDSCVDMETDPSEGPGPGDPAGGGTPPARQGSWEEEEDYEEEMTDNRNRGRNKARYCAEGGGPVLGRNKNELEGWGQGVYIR

As to `CC(C)(C)c1cc(C(=O)N2CCN(C(=O)CCCCC(c3ccc(F)cc3)c3ccc(F)cc3)CC2)cc(C(C)(C)C)c1O` [Compound P28], the IC50 worked out at 379 nM under setting [1] and 217 nM under setting [2].
With `Fc1ccc(C(CCCCCN2CCN(c3nc4ccccc4s3)CC2)c2ccc(F)cc2)cc1` [Compound P32], the IC50 by setting is: under setting [1], 345 nM; under setting [2], 245 nM.
Regarding `COc1cc(CN2CCN(CCCCCCCCC(c3ccc(F)cc3)c3ccc(F)cc3)CC2)cc(OC)c1OC` [Compound P40], the IC50 by setting is: under setting [1], 286 nM; under setting [2], 214 nM.
For `COc1cc(C(=O)N2CCN(C(=O)CCCC(O)C(c3ccc(F)cc3)c3ccc(F)cc3)CC2)cc(OC)c1OC` (centres unmarked) [Compound P44, 6,6-bis-(4-fluoro-phenyl)-5-hydroxy-1-[4-(3,4,5-trimethoxy-benzoyl)-piperazin-1-yl]-hexan-1-one], the IC50 amounted to 280 nM under setting [1] and 180 nM under setting [2].
On the same counts, the results for `COc1cc(C(=O)N2CCN(C(=O)CCCCC(O)(c3ccc(F)cc3)c3ccc(F)cc3)CC2)cc(OC)c1OC` [Compound P46, 6,6-bis-(4-fluoro-phenyl)-6-hydroxy-1-[4-(3,4,5,-trimethoxy-benzoyl)-piperazin-1-yl]-hexan-1-one] are 430 nM and 340 nM.
Taken in the same sequence, the figures for `COc1cc(CN2CCN(C(=O)CCCCC(c3ccc(F)cc3)c3ccc(F)cc3)CC2=O)cc(OC)c1OC` [Compound P48, 4-[6,6-bis-(4-fluoro-phenyl)-hexanoyl]-1-(3,4,5,-trimethoxy-benzyl)-piperazin-2-one] were 102 nM and 56 nM.
Take `COc1c(C(C)(C)C)cc(CN2CCN(C(=O)CCCCC(c3ccc(F)cc3)c3ccc(F)cc3)CC2=O)cc1C(C)(C)C` [Compound P52]: the IC50 came to 400 nM under setting [1] and 370 nM under setting [2].
Take `O=C1CN(C(=O)CCCCC(c2ccc(F)cc2)c2ccc(F)cc2)CCN1CCOc1ccc(F)cc1` [Compound P53]: the half-maximal inhibitory concentration (IC50) reads like this: under setting [1], 200 nM; under setting [2], 980 nM.
For the molecule `COc1c(C(C)(C)C)cc(C(=O)N2CCN(CCCCCC(c3ccc(F)cc3)c3ccc(F)cc3)C(=O)C2)cc1C(C)(C)C` [Compound P54], the IC50 under setting [1] worked out at 120 nM and the IC50 under setting [2] stood at 76 nM.
On to `COc1c(C(C)(C)C)cc(C(=O)N2CCN(C(=O)CCCCC(c3ccc(F)cc3)c3ccc(F)cc3)CC2=O)cc1C(C)(C)C` [Compound P55], for which the IC50 runs as follows: under setting [1], 190 nM; under setting [2], 150 nM.
As for `CC(C)(C)c1cc(C(=O)N2CCN(C(=O)CCCCC(c3ccc(F)cc3)c3ccc(F)cc3)C(=O)C2)cc(C(C)(C)C)c1O` [Compound P57], the IC50 is, setting by setting: under setting [1], 600 nM; under setting [2], 400 nM.
As for `COc1ccc(OCCN2CCN(C(=O)CCCCC(c3ccc(F)cc3)c3ccc(F)cc3)CC2)cc1OC` [Compound P59, 1-{4-[2-(3,4-dimethoxy-phenoxy)ethyl]-piperazin-1-yl}-6,6-bis-(4-fluoro-phenyl)-hexan-1-one], the IC50 under setting [1] was found to be 810 nM and the IC50 under setting [2] was 430 nM.
For `COc1ccc(OCCN2CCN(CCCCCC(c3ccc(F)cc3)c3ccc(F)cc3)CC2)cc1OC` [Compound P60, 1-[6,6-bis-(4-fluoro-phenyl)-hexyl]-4-[2-(3,4,-dimethoxy-phenoxy)-ethyl]-piperazine], the half-maximal inhibitory concentration (IC50) under setting [1] was 970 nM and the concentration for half-maximal inhibition (IC50) under setting [2] amounted to 790 nM.
Regarding `COc1cc(CN2CCN(CCCCCC(c3ccc(F)cc3)c3ccc(F)cc3)[C@@H](C(=O)O)C2)cc(OC)c1OC` [Compound P61], the IC50 was 610 nM under setting [1] and 520 nM under setting [2].
On the same counts, the results for `CCOC(=O)C1CN(CCCCCC(c2ccc(F)cc2)c2ccc(F)cc2)CCN1Cc1cc(OC)c(OC)c(OC)c1` (centres unmarked) [Compound P62] are 680 nM and 410 nM.
With `COc1ccc(CN2CCN(CCCCCC(c3ccc(F)cc3)c3ccc(F)cc3)CC2)cc1OC` [Compound P63], the IC50 turned out to be 319 nM under setting [1] and 258 nM under setting [2].
Consider `COc1ccc(C(=O)N2CCN(C(=O)CCCCC(c3ccc(F)cc3)c3ccc(F)cc3)CC2)cc1OC` [Compound P64], for which the IC50 under setting [1] amounted to 541 nM and the concentration for half-maximal inhibition (IC50) under setting [2] was 390 nM.
As to `Fc1ccc(C(CCCCCN2CCN(CCOc3ccc4c(c3)OCO4)CC2)c2ccc(F)cc2)cc1` [Compound P65], the IC50 is 705 nM under setting [1] and 517 nM under setting [2].
As for `COc1cc(OCCN2CCN(CCCCCC(c3ccc(F)cc3)c3ccc(F)cc3)CC2)cc(OC)c1OC` [Compound P66], the IC50 was 800 nM under setting [1] and 550 nM under setting [2].
With `Cc1cc(OC[C@@H](O)CN2CCN(CCCCCC(c3ccc(F)cc3)c3ccc(F)cc3)CC2)c(C)c(C)c1N` [Compound P67], the half-maximal inhibitory concentration (IC50) came to 1050 nM under setting [1] and 928 nM under setting [2].
For `Cc1cc(OC[C@@H](O)CN2CCN(C(=O)CCCCC(c3ccc(F)cc3)c3ccc(F)cc3)CC2)c(C)c(C)c1N` [Compound P68], the IC50 amounted to 1580 nM under setting [1] and 975 nM under setting [2].
Take `O=C(CCCCC(c1ccc(F)cc1)c1ccc(F)cc1)N1CCN(c2nc3ccccc3s2)CC1` [Compound P69]: the half-maximal inhibitory concentration (IC50) amounted to 502 nM under setting [1] and 410 nM under setting [2].
`Fc1ccc(C(CCCCCN2CCN(Cc3cc(C(F)(F)F)cc(C(F)(F)F)c3)CC2)c2ccc(F)cc2)cc1` [Compound P70]: the half-inhibitory concentration (IC50) by setting is: under setting [1], 1040 nM; under setting [2], 1060 nM.
On to `O=C(CCCCC(c1ccc(F)cc1)c1ccc(F)cc1)N1CCN(C(=O)c2cc(C(F)(F)F)cc(C(F)(F)F)c2)CC1` [Compound P71], for which the IC50 worked out at 870 nM under setting [1] and 510 nM under setting [2].
With `CC(C)(C)c1ccc(C(=O)N2CCN(C(=O)CCCCC(c3ccc(F)cc3)c3ccc(F)cc3)CC2)cc1` [Compound P72], the IC50 was determined as 808 nM under setting [1] and 630 nM under setting [2].
As to `Fc1ccc(C(CCCCCN2CCN(Cc3ccc(Br)cc3)CC2)c2ccc(F)cc2)cc1` [Compound P73], the IC50 is 439 nM under setting [1] and 377 nM under setting [2].
Taken in the same sequence, the figures for `Fc1ccc(C(CCCCCN2CCN(CCSc3nc4ccccc4s3)CC2)c2ccc(F)cc2)cc1` [Compound P74] were 660 nM and 430 nM.
Taken in the same sequence, the figures for `COc1cc(C(=O)N2CCN(C(=O)CCCCC(c3ccc(F)cc3)c3ccc(F)cc3)CC2)cc(OC)c1O` [Compound P75] were 839 nM and 603 nM.
Turning to `Oc1c(Br)cc(CN2CCN(CCCCCC(c3ccc(F)cc3)c3ccc(F)cc3)CC2)cc1Br` [Compound P76], the IC50 is, setting by setting: under setting [1], 680 nM; under setting [2], 514 nM.
Turning to `Fc1ccc(C(CCCCCN2CCN(Cc3ccc(OC(F)(F)F)cc3)CC2)c2ccc(F)cc2)cc1` [Compound P77], the IC50 turned out to be 280 nM under setting [1] and 220 nM under setting [2].
Consider `COc1cc(CNCCN2CCN(CCCCCC(c3ccc(F)cc3)c3ccc(F)cc3)CC2)cc(OC)c1OC` [Compound P78], for which the 50% inhibitory concentration (IC50) turned out to be 64 nM under setting [1] and 30 nM under setting [2].
In the case of `O=C(CCCCC(c1ccc(F)cc1)c1ccc(F)cc1)N1CCN(CCOc2ccc(F)cc2)CC1` [Compound P79], the IC50 reads like this: under setting [1], 579 nM; under setting [2], 423 nM.
As to `O=C(CCCCC(c1ccc(F)cc1)c1ccc(F)cc1)N1CCN(CCNc2ccccc2)CC1` [Compound P80], the IC50 worked out at 960 nM under setting [1] and 660 nM under setting [2].
With `COc1cc(CN2CCN(CCCCCC(c3ccc(F)cc3)c3ccc(F)cc3)CC2)cc(OC)c1O` [Compound P101], the 50% inhibitory concentration (IC50) under setting [1] is 277 nM and the IC50 under setting [2] was found to be 203 nM.
